According to US6670446B1, “N1 modified glycopeptides” (Eli Lilly and Company, priority 1998, dated 2003):

Assays:
Assay type in all cases: cell-based
[1] = tested on: Resistant Enterococcus faecium and faecalis; test: MIC, standard broth micro-dilution assay, Resistant; details: geometric mean of 4-6 isolates
Protocol: (§1) The antibacterial efficacy of the present compounds is illustrated by Table III. The minimal inhibitory concentrations (MICs) were determined using a standard broth micro-dilution assay.

[2] = tested on: Sensitive Enterococcus faecium and faecalis; test: MIC, standard broth micro-dilution assay, Sensitive; details: geometric mean of 4-6 isolates
Protocol: as §1

[3] = tested on: Staphylococcus aureus 446; test: MIC, standard broth micro-dilution assay, SA 446
Protocol: as §1

[4] = tested on: Staphylococcus aureus 489; test: MIC, standard broth micro-dilution assay, SA 489
Protocol: as §1

[5] = tested on: Staphylococcus aureus 447; test: MIC, standard broth micro-dilution assay, SA 447
Protocol: as §1

[6] = tested on: Staphylococcus aureus X400; test: MIC, standard broth micro-dilution assay, SA X400
Protocol: as §1

[7] = tested on: Staphylococcus aureus X778; test: MIC, standard broth micro-dilution assay, SA X778
Protocol: as §1

[8] = tested on: Staphylococcus aureus 491; test: MIC, standard broth micro-dilution assay, SA 491
Protocol: as §1

[9] = tested on: Staphylococcus aureus S13E
Protocol: as §1

[10] = tested on: Staphylococcus aureus SA1199; test: MIC, standard broth micro-dilution assay, SA 1199
Protocol: as §1

[11] = tested on: Staphylococcus aureus SA1199A; test: MIC, standard broth micro-dilution assay, SA 1199A
Protocol: as §1

[12] = tested on: Staphylococcus haemolyticus 105; test: MIC, standard broth micro-dilution assay, SH 105
Protocol: as §1

[13] = tested on: Staphylococcus haemolyticus 415; test: MIC, standard broth micro-dilution assay, SH 415
Protocol: as §1

[14] = tested on: Staphylococcus epidermidis 270; test: MIC, standard broth micro-dilution assay, SE 270
Protocol: as §1

Enterococcus faecium 180 = test: MIC, standard broth micro-dilution assay, EF 180
Protocol: as §1

[15] = tested on: Enterococcus faecium 180-1; test: MIC, standard broth micro-dilution assay, EF 180-1
Protocol: as §1

[16] = tested on: Enterococcus faecalis 2041; test: MIC, standard broth micro-dilution assay, EF 2041
Protocol: as §1

[17] = tested on: Enterococcus faecalis 276; test: MIC, standard broth micro-dilution assay, EF 276
Protocol: as §1

[18] = tested on: Enterococcus gallinarum 245; test: MIC, standard broth micro-dilution assay, EG 245
Protocol: as §1

[19] = tested on: Haemophilus influenzae RD; test: MIC, standard broth micro-dilution assay, HFRD
Protocol: as §1

Escherichia coli EC14 = test: MIC, standard broth micro-dilution assay, EC 14
Protocol: as §1

| SMILES | minimal inhibitory concentration (MIC), Resistant [1] | minimal inhibitory concentration (MIC), Sensitive [2] | minimal inhibitory concentration (MIC), SA 446 [3] | minimal inhibitory concentration (MIC), SA 489 [4] | minimal inhibitory concentration (MIC), SA 447 [5] | minimal inhibitory concentration (MIC), SA X400 [6] | minimal inhibitory concentration (MIC), SA X778 [7] | minimal inhibitory concentration (MIC), SA 491 [8] | minimal inhibitory concentration (MIC), SA S13E [9] | minimal inhibitory concentration (MIC), SA 1199 [10] | minimal inhibitory concentration (MIC), SA 1199A [11] | minimal inhibitory concentration (MIC), SH 105 [12] | minimal inhibitory concentration (MIC), SH 415 [13] | minimal inhibitory concentration (MIC), SE 270 [14] | minimal inhibitory concentration (MIC), EF 180 (Enterococcus faecium 180) | minimal inhibitory concentration (MIC), EF 180-1 [15] | minimal inhibitory concentration (MIC), EF 2041 [16] | minimal inhibitory concentration (MIC), EF 276 [17] | minimal inhibitory concentration (MIC), EG 245 [18] | minimal inhibitory concentration (MIC), EC 14 (Escherichia coli EC14) | further results |
| --- | --- | --- | --- | --- | --- | --- | --- | --- | --- | --- | --- | --- | --- | --- | --- | --- | --- | --- | --- | --- | --- |
| CC1OC(OC2C(Oc3c4cc5cc3Oc3ccc(cc3Cl)[C@@H](O)[C@@H](NC(=O)c3ccc(-c6ccccc6)cc3)C(=O)N[C@@H](CC(N)=O)C(=O)N[C@H]5C(=O)N[C@H]3C(=O)NC(C(=O)N[C@H](C(=O)O)c5cc(O)cc(O)c5-c5cc3ccc5O)[C@H](OC3CC(C)(N)C(O)C(C)O3)c3ccc(c(Cl)c3)O4)OC(CO)C(O)C2O)CC(C)(N)C1O (some centres unmarked) [Example 1, N^1-(p-phenylbenzoyl)desleucylA82846B] | >128 | 4 | 1 | 0.5 | 0.25 | 0.5 | 0.125 | 0.5 | 0.25 | 0.125 | ≦.06 | 2 | 4 | 0.5 | 64 | 0.125 | 0.125 | 0.125 | 2 | >64 | minimal inhibitory concentration (MIC), HFRD [19]: no growth |
| CC1OC(OC2C(Oc3c4cc5cc3Oc3ccc(cc3Cl)[C@@H](O)[C@@H](NC(=O)CCCCCCCc3ccccc3)C(=O)N[C@@H](CC(N)=O)C(=O)N[C@H]5C(=O)N[C@H]3C(=O)NC(C(=O)N[C@H](C(=O)O)c5cc(O)cc(O)c5-c5cc3ccc5O)[C@H](OC3CC(C)(N)C(O)C(C)O3)c3ccc(c(Cl)c3)O4)OC(CO)C(O)C2O)CC(C)(N)C1O (some centres unmarked) [Example 2, N^1-(8-phenyl-n-octanoyl)desleucylA82846B] | >128 | 1.5 | ≦.06 | ≦.06 | ≦.06 | ≦.06 | ≦.06 | ≦.06 | ≦.06 | 0.125 | ≦.06 | 1 | 8 | 0.125 | 8 | ≦.06 | ≦.06 | ≦.06 | 0.25 | >64 | minimal inhibitory concentration (MIC), HFRD [19]: no growth |
| CC1OC(OC2c3ccc(c(Cl)c3)Oc3cc4cc(c3OC3OC(CO)C(O)C(O)C3OC3CC(C)(NCc5ccc(-c6ccccc6)cc5)C(O)C(C)O3)Oc3ccc(cc3Cl)C(O)C(NC(=O)CCCCCCCc3ccccc3)C(=O)NC(CC(N)=O)C(=O)NC4C(=O)NC3C(=O)NC2C(=O)NC(C(=O)O)c2cc(O)cc(O)c2-c2cc3ccc2O)CC(C)(N)C1O (centres unmarked) [Example 3, N^1-(8-phenyl-n-octanoyl)-N^DISACC-(p-phenylbenzyl)desleucylA82846B] | 6.7 | 2.6 | 1 | 1 | 1 | 1 | 1 | 1 | 2 | 1 | 0.5 | 1 | 2 | 1 | 1 | ≦.06 | 0.5 | 0.5 | 2 | >64 | minimal inhibitory concentration (MIC), HFRD [19]: >64 |
| CC(C)CCC(=O)N[C@H]1C(=O)N[C@@H](CC(N)=O)C(=O)N[C@H]2C(=O)N[C@H]3C(=O)NC(C(=O)N[C@H](C(=O)O)c4cc(O)cc(O)c4-c4cc3ccc4O)[C@H](OC3CC(C)(N)C(O)C(C)O3)c3ccc(c(Cl)c3)Oc3cc2cc(c3OC2OC(CO)C(O)C(O)C2OC2CC(C)(N)C(O)C(C)O2)Oc2ccc(cc2Cl)[C@H]1O (some centres unmarked) [Example 4, N^1-(4-methyl-n-pentanoyl)desleucylA82846B] | >128 | 4 | 1 | 0.5 | 1 | 0.25 | 0.5 | 0.125 | 0.5 | 0.5 | 0.5 | 0.25 | 16 | 0.5 | >64 | 0.5 | 1 | 0.5 | 4 | >64 | minimal inhibitory concentration (MIC), HFRD [19]: >64 |
| CC1OC(OC2c3ccc(c(Cl)c3)Oc3cc4cc(c3OC3OC(CO)C(O)C(O)C3OC3CC(C)(NCc5ccc(-c6ccc(Cl)cc6)cc5)C(O)C(C)O3)Oc3ccc(cc3Cl)C(O)C(NC(=O)CCCCCCN)C(=O)NC(CC(N)=O)C(=O)NC4C(=O)NC3C(=O)NC2C(=O)NC(C(=O)O)c2cc(O)cc(O)c2-c2cc3ccc2O)CC(C)(N)C1O (centres unmarked) [Example 10, N^1-(7-amino-n-heptanoyl)-N^DISACC-[p-(p-chlorophenyl)benzyl]desleucylA82846B] | 5.7 | 0.57 | – | – | – | – | – | – | – | – | – | – | – | – | – | – | – | – | – | – | – |
| CC(C)C[C@@H](NC(=O)OC(C)(C)C)C(=O)N[C@H]1C(=O)N[C@@H](CC(N)=O)C(=O)N[C@H]2C(=O)N[C@H]3C(=O)NC(C(=O)N[C@H](C(=O)O)c4cc(O)cc(O)c4-c4cc3ccc4O)[C@H](OC3CC(C)(N)C(O)C(C)O3)c3ccc(c(Cl)c3)Oc3cc2cc(c3OC2OC(CO)C(O)C(O)C2OC2CC(C)(N)C(O)C(C)O2)Oc2ccc(cc2Cl)[C@H]1O (stereo partly drawn) [Example 14, N^1-(N-BOC-D-leucine) derivative of desleucylA82846B] | >128 | 6.1 | – | – | – | – | – | – | – | – | – | – | – | – | – | – | – | – | – | – | – |
| CC1OC(OC2C(Oc3c4cc5cc3Oc3ccc(cc3Cl)[C@@H](O)[C@@H](NC(=O)[C@@H](CCCCNC(=O)OC(C)(C)C)NC(=O)OC(C)(C)C)C(=O)N[C@@H](CC(N)=O)C(=O)N[C@H]5C(=O)N[C@H]3C(=O)NC(C(=O)N[C@H](C(=O)O)c5cc(O)cc(O)c5-c5cc3ccc5O)[C@H](OC3CC(C)(N)C(O)C(C)O3)c3ccc(c(Cl)c3)O4)OC(CO)C(O)C2O)CC(C)(N)C1O (stereo partly drawn) [Example 16, N^1-(N,N′-DIBOC-D-lysine) derivative of desleucylA82846B] | >128 | 7 | – | – | – | – | – | – | – | – | – | – | – | – | – | – | – | – | – | – | – |
| CNC(C(=O)NC1C(=O)NC(CC(N)=O)C(=O)NC2C(=O)NC3C(=O)NC(C(=O)NC(C(=O)O)c4cc(O)cc(O)c4-c4cc3ccc4O)C(OC3CC(C)(N)C(O)C(C)O3)c3ccc(c(Cl)c3)Oc3cc2cc(c3OC2OC(CO)C(O)C(O)C2OC2CC(C)(N)C(O)C(C)O2)Oc2ccc(cc2Cl)C1O)C(C)C [Example 42, N^1-(N-methyl-D-valine) derivative of desleucylA82846B] | 128 | 0.66 | 0.5 | 0.5 | 0.5 | 0.5 | 2 | 1 | 1 | – | – | 0.5 | 1 | 1 | 64 | – | – | – | – | >64 | – |
